Counter-ions that a name gives are not always drawn.
Tests used:
[1] = system: delayed hypersensitivity induced by picryl chloride; assay: Reinforcement Test of Delayed Hypersensitivity (picryl chloride, pinna thickness); type: in vivo, ICR male mice; conditions: 50 mg per Kg orally, simultaneously with sensitization; 24 hours after challenging; average of both pinnae of eight mice; * P<0.05, ** P<0.01 vs control
Text: The delayed hypersensitivity induced on a mouse when picryl chloride(2-chloro-1,3,5-trinitrobenzene) is coated on the skin of the mouse is known as a typical cellular immunity.
The above test system was used for the reinforcement tests of the delayed hypersensitivity.
Groups of eight ICR male mice, each having a body weight of about 30 g, were used for the test.
Sensitization was effected by coating a 3% solution of picryl chloride in a 4/1 mixture of olive oil and acetone on the shaved abdomen of each of the mice.
Simultaneously with the sensitization, a solution or suspension of a compound of the present invention dissolved or suspended in a 0.2% solution of carboxymethylcellulose in a physiological saline was orally administered to the mouse at a dose of 50 mg per Kg of its body weight. To each mouse of a control group, a 0.2% carboxymethylcellulose solution was similarly administered in a physiological saline.
The delayed hypersensitivity was induced 7 days after the sensitization by pinching each of the pinnae of each mouse with a pair of forceps whose tip portions were wrapped with a felt impregnated with a 1% solution of picryl chloride in olive oil and coating the pinnae with the solution. The thickness of each pinna was measured before the challenging and 24 hours after the challenging and the ratio of increase of the thickness (average value of both of the pinnae of the eight mice) is shown in Table 1.
For comparison, a similar test was carried out using Levamisole hydrochloride.
F.t tests were carried out on the thus-obtained test results.

[2] = system: adjuvant arthritis; assay: Adjuvant Arthritis Test (Mycobacterium tuberculosis adjuvant); type: in vivo, SD male rats; conditions: 5 mg per Kg subcutaneously, 9 times in total; left hind leg; * P<0.05, ** P<0.01 vs control
Text: The adjuvant arthritis in rats caused by the injection of a Mycobacterium tuberculosis adjuvant is often utilized for a model test of chronic rheumatoid arthritis in human.
The mechanism of manifestation of this disease has not completely been elucidated, but it is known that the cellular immunity plays an important role. The immuno-modulating activity of the compounds of the present invention was investigated in accordance with this known adjuvant arthritis test.
8-Week-old SD male rats were used for the test. In 0.1 ml of fluid paraffin, 0.4 mg of dry-dead cells of Mycobacterium tuberculosis were suspended, and the suspension was injected under the heel skin of the right hind leg of each rat. Each of the compounds of the present invention was subcutaneously administered 9 times in total before and after the injection of the adjuvant. Each of the compounds of the present invention was dissolved or suspended in a 0.2% solution of carboxymethylcellulose in physiological saline and administered to each rat at a dose of 5 mg per Kg of the body weight. The swollen volume of the left hind leg was measured during the period of from the day of injection to the day of completion of the test, and the swelling ratio was calculated. For comparison, a similar test was conducted using Levamisole hydrochloride. F.t tests were carried out on the test results obtained.

[3] = Acute Toxicity Test through Oral Administration; type: in vivo; conditions: ddY male mice, 7 days observation
Text: To each of a group of five ddY male mice, was orally administered a medicine dissolved or suspended in physiological saline.

SMILES | Ratio of Increase of Pinna Thickness [1] [%] | Swell suppression ratio to control group (average value from 16th to 20th days) [2] [%] | estimated LD50 [3] [mg/kg]
c1ccc([C@H]2CN3CCSC3=N2)cc1 [Levamisole.HCl, Levamisole hydrochloride, reference compound] | 31.2 | 19.8 | 200 to 300
O=C(Nc1nc(-c2ccccc2)cs1)C(=O)Nc1nc(-c2ccccc2)cs1 [drawing 6] | 30.3 | – | –
O=C(Nc1nc(-c2ccc(Cl)cc2)cs1)C(=O)Nc1nc(-c2ccc(Cl)cc2)cs1 [drawing 7] | 29.5 | – | –
COc1ccc(-c2csc(NC(=O)C(=O)Nc3nc(-c4ccc(OC)cc4)cs3)n2)cc1 [drawing 8] | 36.5 | – | –
CSc1sc(NC(=O)C(=O)Nc2nc(-c3ccccc3)c(SC)s2)nc1-c1ccccc1 [drawing 9] | 27.3 | – | –
CC(Cl)C(=O)Nc1nc(-c2ccccc2)cs1 (stereo not drawn) [drawing 10] | 36.1 | – | –
CC(Br)C(=O)Nc1nc(-c2ccccc2)cs1 (stereo not drawn) [drawing 11] | 32.9 | – | –
O=C(Nc1nc(-c2ccccc2)cs1)C(=O)Nc1nc(-c2ccccc2)cs1 [drawing 12] | – | 51.0 | –
O=C(Nc1nc(-c2ccc(Cl)cc2)cs1)C(=O)Nc1nc(-c2ccc(Cl)cc2)cs1 [drawing 13] | – | 51.9 | –
COc1ccc(-c2csc(NC(=O)C(=O)Nc3nc(-c4ccc(OC)cc4)cs3)n2)cc1 [drawing 14] | – | 14.1 | –
CSc1sc(NC(=O)C(=O)Nc2nc(-c3ccccc3)c(SC)s2)nc1-c1ccccc1 [drawing 15] | – | 35.5 | –
CC(Cl)C(=O)Nc1nc(-c2ccccc2)cs1 (stereo not drawn) [drawing 16] | – | 12.1 | –
CC(Br)C(=O)Nc1nc(-c2ccccc2)cs1 (stereo not drawn) [drawing 17] | – | 20.0 | –

Source: US4501750A, “Thiazole compounds, a process for preparing same and a pharmaceutical composition containing the thiazole compounds” (Mitsui Toatsu Kaguku Kabushiki Kaisha, priority 1981, dated 1985)
